{"source": "patent US6900219B2", "about": "“ABCA-1 elevating compounds” (CV Therapeutics, Inc., priority 2002, dated 2005)"}
{"tested_on": "ABCA-1 gene", "assay": "compounds tested and found to elevate cellular expression of the ABCA-1 gene (Examples 1-6; test not named)", "type": "cell-based", "protocol": "Activity testing is conducted as described in those patents and patent applications referenced above, and in the Examples below, and by methods apparent to one skilled in the art."}
{"smiles": "COc1cc(C(=O)NC2=NCCS2)cc(OC)c1OC", "note": "[(3,4,5-trimethoxyphenyl)-N-(1,3-thiazolin-2-yl)carboxamide]", "cellular expression of the ABCA-1 gene": "elevate cellular expression of the ABCA-1 gene"}
{"smiles": "COc1cc(C(=O)NC2=NC(=O)CS2)cc(OC)c1OC", "note": "[(3,4,5-trimethoxyphenyl)-N-(4-oxo(1,3-thiazolin-2-yl))carboxamide]", "cellular expression of the ABCA-1 gene": "elevate cellular expression of the ABCA-1 gene"}
{"smiles": "O=C(NC1=NCCS1)c1ccc(Cl)c(Cl)c1", "note": "[(3,4-dichlorophenyl)-N-(1,3-thiazolin-2-yl)carboxamide]", "cellular expression of the ABCA-1 gene": "elevate cellular expression of the ABCA-1 gene"}
{"smiles": "O=C1CSC(NC(=O)c2ccc(Cl)c(Cl)c2)=N1", "note": "[(3,4-dichlorophenyl)-N-(4-oxo(1,3-thiazolin-2-yl))carboxamide]", "cellular expression of the ABCA-1 gene": "elevate cellular expression of the ABCA-1 gene"}
{"smiles": "O=C(Nc1nc2ccccc2c(=O)o1)c1ccc(Cl)c(Cl)c1", "note": "[(3,4-dichlorophenyl)-N-(4-oxobenzo[d]1,3-oxazin-2-yl)carboxamide]", "cellular expression of the ABCA-1 gene": "elevate cellular expression of the ABCA-1 gene"}
{"smiles": "O=C(NC1=NCCS1)c1ccc(F)c(F)c1", "note": "[(3,4-difluorophenyl)-N-(1,3-thiazolin-2-yl)carboxamide]", "cellular expression of the ABCA-1 gene": "elevate cellular expression of the ABCA-1 gene"}
{"smiles": "O=C1CSC(NC(=O)c2ccc(F)c(F)c2)=N1", "note": "[(3,4-difluorophenyl)-N-(4-oxo(1,3-thiazolin-2-yl))carboxamide]", "cellular expression of the ABCA-1 gene": "elevate cellular expression of the ABCA-1 gene"}
{"smiles": "Cc1ccc(C(=O)Nc2nc(-c3ccccc3)cs2)cc1C", "note": "[(3,4-dimethylphenyl)-N-(4-phenyl(1,3-thiazol-2-yl))carboxamide]", "cellular expression of the ABCA-1 gene": "elevate cellular expression of the ABCA-1 gene"}
{"smiles": "O=C(NC1=NCCS1)c1cc(C(F)(F)F)cc(C(F)(F)F)c1", "note": "[(3,5-bistrifluoromethylphenyl)-N-(1,3-thiazolin-2-yl)carboxamide]", "cellular expression of the ABCA-1 gene": "elevate cellular expression of the ABCA-1 gene"}
{"smiles": "COc1cc(OC)cc(C(=O)NC2=NCCS2)c1", "note": "[(3,5-dimethoxyphenyl)-N-(1,3-thiazolin-2-yl)carboxamide]", "cellular expression of the ABCA-1 gene": "elevate cellular expression of the ABCA-1 gene"}
{"smiles": "COc1cc(OC)cc(C(=O)NC2=NC(=O)CS2)c1", "note": "[(3,5-dimethoxyphenyl)-N-(4-oxo(1,3-thiazolin-2-yl))carboxamide]", "cellular expression of the ABCA-1 gene": "elevate cellular expression of the ABCA-1 gene"}
{"smiles": "O=C(Nc1ccc2ccccc2c1)c1sc2ccccc2c1Cl", "note": "[(3-chlorobenzo[b]thiophen-2-yl)-N-(2-naphthyl)carboxamide]", "cellular expression of the ABCA-1 gene": "elevate cellular expression of the ABCA-1 gene"}
{"smiles": "O=C(NCCc1ccccn1)c1sc2ccccc2c1Cl", "note": "[(3-chlorobenzo[b]thiophen-2-yl)-N-(2-pyridyl)ethyl)carboxamide]", "cellular expression of the ABCA-1 gene": "elevate cellular expression of the ABCA-1 gene"}
{"smiles": "Cc1cccc(NC(=O)c2sc3ccccc3c2Cl)c1", "note": "[(3-chlorobenzo[b]thiophen-2-yl)-N-(3-methylphenyl)carboxamide]", "cellular expression of the ABCA-1 gene": "elevate cellular expression of the ABCA-1 gene"}
{"smiles": "O=C(Nc1ccc(Br)cc1)c1sc2ccccc2c1Cl", "note": "[(3-chlorobenzo[b]thiophen-2-yl)-N-(4-bromophenyl)carboxamide]", "cellular expression of the ABCA-1 gene": "elevate cellular expression of the ABCA-1 gene"}
{"smiles": "O=C(Nc1ccc(Cl)cc1)c1sc2ccccc2c1Cl", "note": "[(3-chlorobenzo[b]thiophen-2-yl)-N-(4-chlorophenyl)carboxamide]", "cellular expression of the ABCA-1 gene": "elevate cellular expression of the ABCA-1 gene"}
{"smiles": "O=C(NC1=NCCS1)c1cccc(Cl)c1", "note": "[(3-chlorophenyl)-N-(1,3-thiazolin-2-yl)carboxamide]", "cellular expression of the ABCA-1 gene": "elevate cellular expression of the ABCA-1 gene"}
{"smiles": "O=C1CSC(NC(=O)c2cccc(Cl)c2)=N1", "note": "[(3-chlorophenyl)-N-(4-oxo(1,3-thiazolin-2-yl))carboxamide]", "cellular expression of the ABCA-1 gene": "elevate cellular expression of the ABCA-1 gene"}
{"smiles": "O=C(NC1=NCCS1)c1cccc(F)c1", "note": "[(3-fluorophenyl)-N-(1,3-thiazolin-2-yl)carboxamide]", "cellular expression of the ABCA-1 gene": "elevate cellular expression of the ABCA-1 gene"}
{"smiles": "O=C1CSC(NC(=O)c2cccc(F)c2)=N1", "note": "[(3-fluorophenyl)-N-(4-oxo(1,3-thiazolin-2-yl))carboxamide]", "cellular expression of the ABCA-1 gene": "elevate cellular expression of the ABCA-1 gene"}
{"smiles": "COc1cccc(C(=O)NC2=NCCS2)c1", "note": "[(3-methoxyphenyl)-N-(1,3-thiazolin-2-yl)carboxamide]", "cellular expression of the ABCA-1 gene": "elevate cellular expression of the ABCA-1 gene"}
{"smiles": "COc1cccc(C(=O)NC2=NC(=O)CS2)c1", "note": "[(3-methoxyphenyl)-N-(4-oxo(1,3-thiazolin-2-yl))carboxamide]", "cellular expression of the ABCA-1 gene": "elevate cellular expression of the ABCA-1 gene"}
{"smiles": "O=C(c1ccc(Br)cc1)N(CCc1ccccc1)Cc1ccc(C(F)(F)F)cc1", "note": "[(4-bromophenyl)-N-(2-phenylethyl)-N-{[4-(trifluoromethyl)phenyl]methyl}-carboxamide]", "cellular expression of the ABCA-1 gene": "elevate cellular expression of the ABCA-1 gene"}
{"smiles": "O=C(NC1=NCCS1)c1ccc(Cl)cc1", "note": "[(4-chlorophenyl)-N-(1,3-thiazolin-2-yl)carboxamide]", "cellular expression of the ABCA-1 gene": "elevate cellular expression of the ABCA-1 gene"}
{"smiles": "O=C(Nc1ccc(Cl)cc1)c1ccc(Cl)cc1", "note": "[(4-chlorophenyl)-N-(4-chlorophenyl)carboxamide]", "cellular expression of the ABCA-1 gene": "elevate cellular expression of the ABCA-1 gene"}
{"smiles": "O=C1CSC(NC(=O)c2ccc(Cl)cc2)=N1", "note": "[(4-chlorophenyl)-N-(4-oxo(1,3-thiazolin-2-yl))carboxamide]", "cellular expression of the ABCA-1 gene": "elevate cellular expression of the ABCA-1 gene"}
{"smiles": "O=C(Nc1nc2ccccc2c(=O)o1)c1ccc(Cl)cc1", "note": "[(4-chlorophenyl)-N-(4-oxobenzo[d]1,3-oxazin-2-yl)carboxamide]", "cellular expression of the ABCA-1 gene": "elevate cellular expression of the ABCA-1 gene"}
{"smiles": "Cc1ccc(-c2cnc(NC(=O)c3ccc(Cl)cc3)s2)cc1", "note": "[(4-chlorophenyl)-N-[5-(4-methylphenyl)(1,3-thiazol-2-yl)]carboxamide]", "cellular expression of the ABCA-1 gene": "elevate cellular expression of the ABCA-1 gene"}
{"smiles": "Cn1cccc1CN(CCc1ccccn1)C(=O)c1ccc(Cl)cc1", "note": "[(4-chlorophenyl)-N-[(1-methylpyrrol-2-yl)methyl]-N-(2-(2-pyridyl)ethyl)carboxamide]", "cellular expression of the ABCA-1 gene": "elevate cellular expression of the ABCA-1 gene"}
{"smiles": "N#Cc1ccc(C(=O)NC2=NCCS2)cc1", "note": "[(4-cyanophenyl)-N-(1,3-thiazolin-2-yl)carboxamide]", "cellular expression of the ABCA-1 gene": "elevate cellular expression of the ABCA-1 gene"}
{"smiles": "N#Cc1ccc(C(=O)Nc2nc(-c3ccc4ccccc4c3)cs2)cc1", "note": "[(4-cyanophenyl)-N-(4-(2-naphthyl)(1,3-thiazol-2-yl))carboxamide]", "cellular expression of the ABCA-1 gene": "elevate cellular expression of the ABCA-1 gene"}
{"smiles": "N#Cc1ccc(C(=O)NC2=NC(=O)CS2)cc1", "note": "[(4-cyanophenyl)-N-(4-oxo(1,3-thiazolin-2-yl))carboxamide]", "cellular expression of the ABCA-1 gene": "elevate cellular expression of the ABCA-1 gene"}
{"smiles": "N#Cc1ccc(C(=O)Nc2nc(-c3ccccc3)cs2)cc1", "note": "[(4-cyanophenyl)-N-(4-phenyl(1,3-thiazol-2-yl))carboxamide]", "cellular expression of the ABCA-1 gene": "elevate cellular expression of the ABCA-1 gene"}
{"smiles": "N#Cc1ccc(C(=O)Nc2ncc(-c3ccccc3)s2)cc1", "note": "[(4-cyanophenyl)-N-(5-phenyl(1,3-thiazol-2-yl))carboxamide]", "cellular expression of the ABCA-1 gene": "elevate cellular expression of the ABCA-1 gene"}
{"smiles": "CCc1ccc(C(=O)NCCN(C(=O)Nc2ccc([N+](=O)[O-])cc2)c2ccccc2)cc1", "note": "[(4-ethylphenyl)-N-(2-{[N-(4-nitrophenyl)carbamoyl]phenylamino}ethyl)carboxamide]", "cellular expression of the ABCA-1 gene": "elevate cellular expression of the ABCA-1 gene"}
{"smiles": "CCc1ccc(C(=O)NCCN(C(=O)Nc2ccc(Oc3ccccc3)cc2)c2ccccc2)cc1", "note": "[(4-ethylphenyl)-N-(2-{phenyl[N-(4-phenoxyphenyl)carbamoyl]amino}ethyl) carboxamide]", "cellular expression of the ABCA-1 gene": "elevate cellular expression of the ABCA-1 gene"}
{"smiles": "CCc1ccc(C(=O)N(CCc2ccccn2)Cc2ccccc2[N+](=O)[O-])cc1", "note": "[(4-ethylphenyl)-N-[(2-nitrophenyl)methyl]-N-(2-(2-pyridyl)ethyl)carboxamide]", "cellular expression of the ABCA-1 gene": "elevate cellular expression of the ABCA-1 gene"}
{"smiles": "O=C(NC1=NCCS1)c1ccc(F)cc1", "note": "[(4-fluorophenyl)-N-(1,3-thiazolin-2-yl)carboxamide]", "cellular expression of the ABCA-1 gene": "elevate cellular expression of the ABCA-1 gene"}
{"smiles": "O=C1CSC(NC(=O)c2ccc(F)cc2)=N1", "note": "[(4-fluorophenyl)-N-(4-oxo(1,3-thiazolin-2-yl))carboxamide]", "cellular expression of the ABCA-1 gene": "elevate cellular expression of the ABCA-1 gene"}
{"smiles": "COc1ccc(C(=O)NC2=NCCS2)cc1", "note": "[(4-methoxyphenyl)-N-(1,3-thiazolin-2-yl)carboxamide]", "cellular expression of the ABCA-1 gene": "elevate cellular expression of the ABCA-1 gene"}
{"smiles": "COc1ccc(C(=O)NCCc2ccccn2)cc1", "note": "[(4-methoxyphenyl)-N-(2-(2-pyridyl)ethyl)carboxamide]", "cellular expression of the ABCA-1 gene": "elevate cellular expression of the ABCA-1 gene"}
{"smiles": "COc1ccc(C(=O)Nc2nc(-c3ccccc3)cs2)cc1", "note": "[(4-methoxyphenyl)-N-(4-phenyl(1,3-thiazol-2-yl))carboxamide]", "cellular expression of the ABCA-1 gene": "elevate cellular expression of the ABCA-1 gene"}
{"smiles": "Cc1ccc(C(=O)NC2=NCCS2)cc1", "note": "[(4-methylphenyl)-N-(1,3-thiazolin-2-yl)carboxamide]", "cellular expression of the ABCA-1 gene": "elevate cellular expression of the ABCA-1 gene"}
{"smiles": "Cc1ccc(C(=O)NCCc2ccccn2)cc1", "note": "[(4-methylphenyl)-N-(2-(2-pyridyl)ethyl)carboxamide]", "cellular expression of the ABCA-1 gene": "elevate cellular expression of the ABCA-1 gene"}
{"smiles": "Cc1ccc(C(=O)NC2=NC(=O)CS2)cc1", "note": "[(4-methylphenyl)-N-(4-oxo(1,3-thiazolin-2-yl))carboxamide]", "cellular expression of the ABCA-1 gene": "elevate cellular expression of the ABCA-1 gene"}
{"smiles": "O=C1CSC(NC(=O)c2ccc(OC(F)(F)F)cc2)=N1", "note": "[(4-trifluoromethoxyphenyl)-N-(4-oxo(1,3-thiazolin-2-yl))carboxamide]", "cellular expression of the ABCA-1 gene": "elevate cellular expression of the ABCA-1 gene"}
